Holding throughout (format): in vivo
For test [1], the system named is osteoarthritis. The experiment in a line: Treatment of an osteoarthritis patient with oral capsules (Example B). The following applies: human male, capsule with 70 mg daily for 5 years. The method, then:
A capsule for oral administration, according to the present invention, is made comprising:
A human subject weighing 90 kg (198 lbs), suffering from osteoarthritis, is treated by a method of this invention. Specifically, for 5 years, a capsule containing 70 mg of Example 3 is administered daily to said subject.

Test [2] concerns chemical burns. In words: Topical composition in a patient with chemical burns (Example D). The following applies: 0.20% w/v topical composition at each dressing change (b.i.d.). From the text:
An topical composition for local administration, according to the present invention, is made comprising:
A patient suffering from chemical burns applies the composition at each dressing change (b.i.d.).

The subject of test [3] is premetastatic tumor. The experiment in a line: Injection beside a premetastatic tumor in a human subject (Example G). The following applies: 100 mg/ml suspension, approx. 2.0 ml injected beside the tumor twice daily, after 30 days. As for the experimental part:
A composition for parenteral administration is made comprising: The above ingredients are mixed, forming a suspension. Approximately 2.0 ml of the suspension is administered, via injection, to a human subject with a premetastatic tumor. The injection site juxtaposes the tumor. This dosage is repeated twice daily, for approximately 30 days.

Test [4] deals with rheumatoid arthritis. In words: Treatment of a rheumatoid arthritis patient with oral tablets (Example A). The following applies: human female, three 15 mg tablets per day orally for 2 years. The method, then:
A tablet composition for oral administration, according to the present invention, is made comprising:
A human subject weighing 60 kg (132 lbs), suffering from rheumatoid arthritis, is treated by a method of this invention. Specifically, for 2 years, a regimen of three tablets per day is administered orally to said subject.

Each structure is given as a SMILES string.

Consider `COc1ccc(S(=O)(=O)N2CN(Cc3ccccc3)C(=O)C(C)(C)C2C(=O)NO)cc1` (racemic) [Example 3, N-Hydroxy 1-Benzyl-5,5-dimethyl-3-[(4-methoxyphenyl)sulfonyl]-6-oxo-hexahydro-pyrimidine-4(R,S)-carboxamide], for which, in test [1], the “erosion/fibrillation of the articular cartilage, examined via orthoscopy” value is “no further advancement of erosion/fibrillation of the articular cartilage”. Also, the scarring result in test [2] is on record as “Scarring is substantially diminished”.
For the compound `COc1ccc(S(=O)(=O)N2CCN(C(C)C)C(=O)C[C@@H]2C(=O)NO)cc1` [Example 4, N-Hydroxy 1-(1-Methylethyl)-4-[(4-methoxyphenyl)sulfonylamino]-7-oxo-1,4-diazepine-5(R)-carboxamide], the “symptoms of the disease” value in test [3] is recorded as “symptoms of the disease subside”.
Take `COc1ccc(S(=O)(=O)N2CCSCCC2C(=O)NO)cc1` (centres unmarked) [Example 9, N-Hydroxy-4-[(4-methoxyphenyl)sulfonyl]-thiazepine-5-carboxamide]: in test [4], the “inflammation at the end of the treatment period” value is given as “reduced inflammation”; the “mobility and pain at the end of the treatment period” value is on record as “improved mobility without concomitant pain”.

The values above are taken from patent publication US6399598B1, “Diheterocyclic metalloprotease inhibitors” (The Procter & Gamble Company, priority 1996, dated 2002).
